Measurements reported in ChEMBL document CHEMBL4400547 (J Med Chem, 2019).
Values after ≈ are worked out from the molar mass of the structure shown. Active and inactive are the calls of the source. The calls are words filed in the database; no cut-off is given here.

Legend:
[1] = target: T1, Serine/threonine-protein kinase/endoribonuclease IRE1 (Homo sapiens, UniProt O75460); assay: Displacement for LanthaScreen tracer from dephosphorylated IRE1alpha (G547 to L977 residues) (unknown origin) ATP binding site […] after 60 mins by FRET assay
Target sequence in this assay (O75460 whole entry, the tested form may be a part): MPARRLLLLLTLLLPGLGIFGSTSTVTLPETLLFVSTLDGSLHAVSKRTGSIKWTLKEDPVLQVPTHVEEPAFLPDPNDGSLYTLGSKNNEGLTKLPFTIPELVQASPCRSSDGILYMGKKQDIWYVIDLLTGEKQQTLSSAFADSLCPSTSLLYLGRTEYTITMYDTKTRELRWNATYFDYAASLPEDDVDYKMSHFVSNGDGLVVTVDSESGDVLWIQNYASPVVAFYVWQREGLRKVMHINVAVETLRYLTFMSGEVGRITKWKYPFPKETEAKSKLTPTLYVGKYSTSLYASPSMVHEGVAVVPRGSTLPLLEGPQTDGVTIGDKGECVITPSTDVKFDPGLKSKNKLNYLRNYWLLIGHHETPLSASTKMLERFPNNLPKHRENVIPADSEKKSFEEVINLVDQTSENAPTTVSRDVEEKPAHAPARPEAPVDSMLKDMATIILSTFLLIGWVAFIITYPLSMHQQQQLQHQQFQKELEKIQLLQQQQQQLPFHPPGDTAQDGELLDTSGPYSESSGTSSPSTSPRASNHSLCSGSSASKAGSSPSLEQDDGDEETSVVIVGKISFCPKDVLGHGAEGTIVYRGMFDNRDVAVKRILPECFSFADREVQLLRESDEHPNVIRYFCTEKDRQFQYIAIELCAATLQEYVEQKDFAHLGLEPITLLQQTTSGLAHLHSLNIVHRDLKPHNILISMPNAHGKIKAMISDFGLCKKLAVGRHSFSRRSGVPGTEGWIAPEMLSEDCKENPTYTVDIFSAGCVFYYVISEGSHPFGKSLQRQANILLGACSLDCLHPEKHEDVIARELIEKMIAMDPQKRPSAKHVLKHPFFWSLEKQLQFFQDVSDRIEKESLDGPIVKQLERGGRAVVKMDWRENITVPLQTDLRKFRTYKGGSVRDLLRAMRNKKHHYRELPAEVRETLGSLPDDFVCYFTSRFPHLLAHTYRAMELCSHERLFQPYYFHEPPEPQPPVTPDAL

[2] = target: Cyclin-dependent kinase 17 (Homo sapiens) (UniProt Q00537); assay: Inhibition of recombinant human GST-tagged PCTK2 expressed in baculovirus expression system at 1 uM by kinomescan assay relative to control
Cyclin-dependent kinase 17 (Homo sapiens), sequence (Q00537 whole entry, looked up): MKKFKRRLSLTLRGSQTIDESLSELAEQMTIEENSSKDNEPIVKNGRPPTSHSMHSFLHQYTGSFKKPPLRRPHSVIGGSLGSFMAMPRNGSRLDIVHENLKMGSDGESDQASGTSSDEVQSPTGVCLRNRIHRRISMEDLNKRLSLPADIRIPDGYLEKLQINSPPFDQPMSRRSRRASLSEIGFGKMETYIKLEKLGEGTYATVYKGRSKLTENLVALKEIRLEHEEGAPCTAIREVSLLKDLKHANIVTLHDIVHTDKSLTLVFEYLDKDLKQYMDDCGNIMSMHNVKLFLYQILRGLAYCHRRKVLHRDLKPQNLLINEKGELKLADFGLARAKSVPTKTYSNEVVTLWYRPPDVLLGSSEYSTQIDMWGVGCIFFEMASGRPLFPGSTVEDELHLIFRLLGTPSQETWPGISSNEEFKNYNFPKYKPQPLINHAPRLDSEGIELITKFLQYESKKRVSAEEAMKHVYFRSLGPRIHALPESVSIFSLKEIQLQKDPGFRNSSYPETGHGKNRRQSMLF

[3] = target: T1, Serine/threonine-protein kinase/endoribonuclease IRE1; assay: Inhibition of thapsigargin-induced IRE1alpha (unknown origin) expressed in HEK293 cells assessed as reduction in IRE1alpha-dependent splicing of XBP1u-luciferase mRNA by luciferase reporter gene assay; format: cell-based
Target sequence in this assay (O75460 whole entry, the tested form may be a part): as the sequence (O75460 whole entry, the tested form may be a part) above

HEK293 = assay: cells; details: Homo sapiens
Description: Cytotoxicity against HEK293 cells co-expressing XBP1u-mRNA by luciferase reporter gene assay

[4] = target: T1, Serine/threonine-protein kinase/endoribonuclease IRE1; assay: Inhibition of tunicamycin-induced GFP-fused IRE1alpha (unknown origin) oligomerization expressed in HEK293 cells assessed as reduction in fluorescent foci formation after 5 hrs by fluorescence based assay; format: cell-based
Target sequence in this assay (O75460 whole entry, the tested form may be a part): as above

[5] = target: T1, Serine/threonine-protein kinase/endoribonuclease IRE1; assay: Inhibition of dephosphorylated IRE1alpha (G547 to L977 residues) (unknown origin) -dependent cleavage of FAM-labeled stem-loop RNA containing the XBP1 cleavage site preincubated for 30 mins followed by RNA XBP1 substrate addition and measured after 15 mins by FRET assay
Target sequence in this assay (O75460 whole entry, the tested form may be a part): as above

[6] = target: T1, Serine/threonine-protein kinase/endoribonuclease IRE1; assay: Inhibition of dephosphorylated IRE1alpha (G547 to L977 residues) (unknown origin) autophosphorylation at S724 after 25 mins in presence of ATP by dissociation-enhanced lanthanide fluorescence immunoassay
Target sequence in this assay (O75460 whole entry, the tested form may be a part): as above

[7] = target: T1, Serine/threonine-protein kinase/endoribonuclease IRE1; assay: Inhibition of tunicamycin-induced IRE1alpha (unknown origin) expressed in HEK293 cells assessed as reduction in IRE1alpha-dependent splicing of XBP1u-luciferase mRNA by luciferase reporter gene assay; format: cell-based
Target sequence in this assay (O75460 whole entry, the tested form may be a part): as above

[8] = Distribution coefficient, log D of the compound at pH 7.4; format: physicochemical; details: octanol/water
physchem = details: buffer
Description: Aqueous kinetic solubility of the compound

[9] = system: Mast/stem cell growth factor receptor Kit (Homo sapiens), P10721 [V559D,T670I]; assay: Inhibition of recombinant human His-tagged KIT V559D/T670I double mutant expressed in baculovirus expression system at 1 uM by kinomescan assay relative to control
[10] = system: Receptor-type tyrosine-protein kinase FLT3 (Homo sapiens), P36888 [UNDEFINED MUTATION]; assay: Inhibition of recombinant human His-tagged FLT3 ITD mutant expressed in baculovirus expression system at 1 uM by kinomescan assay relative to control
[11] = system: Mast/stem cell growth factor receptor Kit (Homo sapiens), P10721 [V559D]; assay: Inhibition of recombinant human His-tagged KIT V559D mutant expressed in baculovirus expression system at 1 uM by kinomescan assay relative to control
[12] = target: Dual specificity protein kinase CLK4 (Homo sapiens) (UniProt Q9HAZ1); assay: Inhibition of recombinant full length human GST-tagged CLK4 expressed in baculovirus expression system at 1 uM by kinomescan assay relative to control
[13] = system: Tyrosine-protein kinase ABL1 (Homo sapiens), P00519 [F317I]; assay: Inhibition of phosphorylated recombinant human His-tagged ABL1 F317I mutant expressed in baculovirus expression system at 1 uM by kinomescan assay relative to control
[14] = target: Receptor-type tyrosine-protein kinase FLT3 (Homo sapiens) (UniProt P36888); assay: Inhibition of auto-inhibited recombinant human His-tagged FLT3 expressed in baculovirus expression system at 1 uM by kinomescan assay relative to control
[15] = target: Homeodomain-interacting protein kinase 3 (Homo sapiens) (UniProt Q9H422); assay: Inhibition of recombinant human His-tagged HIPK3 expressed in baculovirus expression system at 1 uM by kinomescan assay relative to control
[16] = target: Dual specificity protein kinase CLK2 (Homo sapiens) (UniProt P49760); assay: Inhibition of recombinant human GST-tagged CLK2 expressed in baculovirus expression system at 1 uM by kinomescan assay relative to control
Dual specificity protein kinase CLK2 (Homo sapiens), sequence (P49760 whole entry, looked up): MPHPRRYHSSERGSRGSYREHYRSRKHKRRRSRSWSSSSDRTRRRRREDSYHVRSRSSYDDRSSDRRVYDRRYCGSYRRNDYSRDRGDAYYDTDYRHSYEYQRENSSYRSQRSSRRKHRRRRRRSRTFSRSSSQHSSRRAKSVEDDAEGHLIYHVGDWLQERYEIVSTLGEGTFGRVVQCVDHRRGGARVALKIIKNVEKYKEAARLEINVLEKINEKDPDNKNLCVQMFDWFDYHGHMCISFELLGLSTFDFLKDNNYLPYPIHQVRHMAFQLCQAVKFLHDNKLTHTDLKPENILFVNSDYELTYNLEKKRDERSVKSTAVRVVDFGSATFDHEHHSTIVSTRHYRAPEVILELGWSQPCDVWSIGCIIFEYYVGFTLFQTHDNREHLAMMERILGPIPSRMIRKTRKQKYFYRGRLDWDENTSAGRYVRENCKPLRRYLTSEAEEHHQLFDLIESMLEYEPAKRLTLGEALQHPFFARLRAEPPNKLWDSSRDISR

[17] = target: Dual specificity tyrosine-phosphorylation-regulated kinase 1B (Homo sapiens) (UniProt Q9Y463); assay: Inhibition of recombinant full length human GST-tagged DYRK1B expressed in baculovirus expression system at 1 uM by kinomescan assay relative to control
Dual specificity tyrosine-phosphorylation-regulated kinase 1B (Homo sapiens), sequence (Q9Y463 whole entry, looked up): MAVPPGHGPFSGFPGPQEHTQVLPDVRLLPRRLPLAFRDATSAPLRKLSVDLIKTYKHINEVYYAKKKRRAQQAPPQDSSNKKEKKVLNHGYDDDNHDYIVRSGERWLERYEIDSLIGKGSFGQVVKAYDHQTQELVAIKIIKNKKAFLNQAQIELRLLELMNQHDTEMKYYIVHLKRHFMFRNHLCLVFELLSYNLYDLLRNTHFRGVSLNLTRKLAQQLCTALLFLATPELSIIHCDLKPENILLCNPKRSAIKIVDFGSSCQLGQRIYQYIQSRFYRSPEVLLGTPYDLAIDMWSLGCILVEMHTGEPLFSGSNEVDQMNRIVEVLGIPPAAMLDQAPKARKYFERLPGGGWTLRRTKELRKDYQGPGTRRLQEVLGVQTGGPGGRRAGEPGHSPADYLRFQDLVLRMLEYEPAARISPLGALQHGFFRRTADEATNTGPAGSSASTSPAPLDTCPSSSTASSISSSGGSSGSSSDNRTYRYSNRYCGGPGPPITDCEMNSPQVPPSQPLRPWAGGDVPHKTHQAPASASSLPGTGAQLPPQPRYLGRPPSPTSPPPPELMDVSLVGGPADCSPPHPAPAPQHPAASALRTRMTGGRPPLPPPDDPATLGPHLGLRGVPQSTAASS

[18] = system: Receptor-type tyrosine-protein kinase FLT3 (Homo sapiens), P36888 [N841I]; assay: Inhibition of recombinant human His-tagged FLT3 […] mutant expressed in baculovirus expression system at 1 uM by kinomescan assay relative to control
[19] = target: Homeodomain-interacting protein kinase 1 (Homo sapiens) (UniProt Q86Z02); assay: Inhibition of recombinant human GST-tagged HIPK1 expressed in baculovirus expression system at 1 uM by kinomescan assay relative to control
[20] = system: Mast/stem cell growth factor receptor Kit (Homo sapiens), P10721 [L576P]; assay: Inhibition of recombinant human His-tagged KIT L576P mutant expressed in baculovirus expression system at 1 uM by kinomescan assay relative to control
[21] = system: Receptor-type tyrosine-protein kinase FLT3 (Homo sapiens), P36888 [D835V]; assay: Inhibition of recombinant human His-tagged FLT3 D835V mutant expressed in baculovirus expression system at 1 uM by kinomescan assay relative to control
[22] = target: Cyclin-G-associated kinase (Homo sapiens) (UniProt O14976); assay: Inhibition of recombinant human GST-tagged GAK (1 to 396 residues) expressed in insect cell expression system at 1 uM by kinomescan assay relative to control
[23] = target: Homeodomain-interacting protein kinase 4 (Homo sapiens) (UniProt Q8NE63); assay: Inhibition of recombinant human His-tagged HIPK4 expressed in baculovirus expression system at 1 uM by kinomescan assay relative to control
Homeodomain-interacting protein kinase 4 (Homo sapiens), sequence (Q8NE63 whole entry): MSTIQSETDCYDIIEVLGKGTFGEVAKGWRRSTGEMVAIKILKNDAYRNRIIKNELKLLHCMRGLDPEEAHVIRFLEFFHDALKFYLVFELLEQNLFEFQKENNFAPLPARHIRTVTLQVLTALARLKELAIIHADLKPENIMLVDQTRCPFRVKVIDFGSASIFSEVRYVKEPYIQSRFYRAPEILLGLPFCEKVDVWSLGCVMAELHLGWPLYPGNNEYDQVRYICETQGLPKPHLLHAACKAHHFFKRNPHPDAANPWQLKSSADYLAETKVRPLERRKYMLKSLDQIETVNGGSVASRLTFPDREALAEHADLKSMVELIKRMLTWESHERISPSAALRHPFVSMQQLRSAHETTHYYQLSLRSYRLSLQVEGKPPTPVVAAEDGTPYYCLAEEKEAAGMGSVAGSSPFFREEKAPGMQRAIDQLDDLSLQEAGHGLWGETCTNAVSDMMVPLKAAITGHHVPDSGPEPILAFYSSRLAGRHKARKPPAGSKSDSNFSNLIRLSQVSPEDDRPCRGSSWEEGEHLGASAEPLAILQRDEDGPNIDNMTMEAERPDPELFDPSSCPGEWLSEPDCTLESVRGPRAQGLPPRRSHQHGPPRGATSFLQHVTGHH

Homo sapiens = species on record: Homo sapiens; assay: Inhibition of recombinant human His-tagged FLT3 ITD/D835V double mutant expressed in baculovirus expression system at 1 uM by kinomescan assay relative to control
[24] = system: Mast/stem cell growth factor receptor Kit (Homo sapiens), P10721 [V559D,V654A]; assay: Inhibition of recombinant human His-tagged KIT V559D/V654A double mutant expressed in baculovirus expression system at 1 uM by kinomescan assay relative to control
[25] = target: T1, Serine/threonine-protein kinase/endoribonuclease IRE1; assay: Inhibition of tunicamycin-induced IRE1alpha-dependent splicing of XBP1s-mRNA transcription in human H929 cells assessed as reduction in […] mRNA expression in at 0.5 to 10 uM by RT-qPCR analysis; format: cell-based
[26] = system: Receptor-type tyrosine-protein kinase FLT3 (Homo sapiens), P36888 [D835H]; assay: Inhibition of recombinant human His-tagged FLT3 D835H mutant expressed in baculovirus expression system at 1 uM by kinomescan assay relative to control
[27] = target: Myosin light chain kinase, smooth muscle (Homo sapiens) (UniProt Q15746); assay: Inhibition of recombinant human GST-tagged MLCK expressed in baculovirus expression system at 1 uM by kinomescan assay relative to control
[28] = target: Homeodomain-interacting protein kinase 2 (Homo sapiens) (UniProt Q9H2X6); assay: Inhibition of recombinant human N-terminal GST-tagged HIPK2 expressed in baculovirus expression system at 1 uM by kinomescan assay relative to control
[29] = target: Dual specificity tyrosine-phosphorylation-regulated kinase 2 (Homo sapiens) (UniProt Q92630); assay: Inhibition of recombinant human GST-tagged DYRK2 at 1 uM by kinomescan assay relative to control
[30] = target: Mast/stem cell growth factor receptor Kit (Homo sapiens) (UniProt P10721); assay: Inhibition of recombinant human His-tagged KIT expressed in baculovirus expression system at 1 uM by kinomescan assay relative to control
Mast/stem cell growth factor receptor Kit (Homo sapiens), sequence (P10721 whole entry): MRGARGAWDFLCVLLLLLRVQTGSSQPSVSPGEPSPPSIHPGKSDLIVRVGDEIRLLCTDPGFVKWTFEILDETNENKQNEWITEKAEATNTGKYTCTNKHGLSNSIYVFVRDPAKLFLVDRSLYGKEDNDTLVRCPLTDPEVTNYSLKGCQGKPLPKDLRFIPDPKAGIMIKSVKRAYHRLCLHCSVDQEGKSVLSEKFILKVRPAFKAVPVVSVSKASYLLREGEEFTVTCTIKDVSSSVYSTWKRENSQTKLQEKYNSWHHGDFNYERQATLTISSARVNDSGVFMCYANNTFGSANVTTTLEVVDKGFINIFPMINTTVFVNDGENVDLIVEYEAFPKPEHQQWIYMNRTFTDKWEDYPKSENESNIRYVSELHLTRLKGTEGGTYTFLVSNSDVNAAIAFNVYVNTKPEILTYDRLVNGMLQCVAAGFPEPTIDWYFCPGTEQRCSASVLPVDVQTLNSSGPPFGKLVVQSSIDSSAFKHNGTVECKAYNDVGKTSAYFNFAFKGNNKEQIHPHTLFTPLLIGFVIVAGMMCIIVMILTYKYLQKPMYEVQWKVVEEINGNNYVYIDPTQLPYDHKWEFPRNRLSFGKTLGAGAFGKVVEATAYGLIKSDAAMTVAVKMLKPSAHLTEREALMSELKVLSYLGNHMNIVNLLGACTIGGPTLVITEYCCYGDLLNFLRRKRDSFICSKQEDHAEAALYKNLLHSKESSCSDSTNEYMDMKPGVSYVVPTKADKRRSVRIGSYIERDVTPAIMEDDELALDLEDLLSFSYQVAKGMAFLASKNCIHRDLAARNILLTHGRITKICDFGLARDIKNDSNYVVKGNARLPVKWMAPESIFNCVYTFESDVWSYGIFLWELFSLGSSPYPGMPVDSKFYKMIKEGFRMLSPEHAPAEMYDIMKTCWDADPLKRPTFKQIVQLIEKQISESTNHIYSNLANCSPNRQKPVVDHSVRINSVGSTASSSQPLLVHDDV

[31] = target: Dual specificity tyrosine-phosphorylation-regulated kinase 1A (Homo sapiens) (UniProt Q13627); assay: Inhibition of recombinant full length human GST-tagged DYRK1A expressed in baculovirus expression system at 1 uM by kinomescan assay relative to control
[32] = target: Dual specificity protein kinase CLK1 (Homo sapiens) (UniProt P49759); assay: Inhibition of recombinant human GST-tagged CLK1 expressed in Escherichia coli at 1 uM by kinomescan assay relative to control
Dual specificity protein kinase CLK1 (Homo sapiens), sequence (P49759 whole entry, looked up): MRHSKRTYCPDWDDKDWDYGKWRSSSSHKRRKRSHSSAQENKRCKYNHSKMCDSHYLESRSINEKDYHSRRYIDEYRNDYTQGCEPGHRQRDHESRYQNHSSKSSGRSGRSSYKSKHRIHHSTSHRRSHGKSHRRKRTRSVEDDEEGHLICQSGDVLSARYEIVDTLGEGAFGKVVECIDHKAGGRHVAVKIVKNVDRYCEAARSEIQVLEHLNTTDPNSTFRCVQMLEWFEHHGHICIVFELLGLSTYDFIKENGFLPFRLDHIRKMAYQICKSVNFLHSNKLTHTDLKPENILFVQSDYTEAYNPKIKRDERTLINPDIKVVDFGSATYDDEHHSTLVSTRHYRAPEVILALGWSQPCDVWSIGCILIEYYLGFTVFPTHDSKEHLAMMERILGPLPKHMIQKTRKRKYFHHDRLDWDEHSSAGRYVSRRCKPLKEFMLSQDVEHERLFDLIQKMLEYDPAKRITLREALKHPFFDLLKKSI

[33] = target: Receptor-type tyrosine-protein kinase FLT3 (Homo sapiens) (UniProt P36888); assay: Inhibition of recombinant human His-tagged FLT3 expressed in baculovirus expression system at 1 uM by kinomescan assay relative to control
[34] = target: Platelet-derived growth factor receptor alpha (Homo sapiens) (UniProt P16234); assay: Inhibition of recombinant human GST-tagged PDGFRA expressed in baculovirus expression system at 1 uM by kinomescan assay relative to control
[35] = system: Tyrosine-protein kinase ABL1 (Homo sapiens), P00519 [F317L]; assay: Inhibition of phosphorylated recombinant human His-tagged ABL1 F317L mutant expressed in baculovirus expression system at 1 uM by kinomescan assay relative to control
[36] = system: Receptor-type tyrosine-protein kinase FLT3 (Homo sapiens), P36888 [R834Q]; assay: Inhibition of recombinant human His-tagged FLT3 R834Q mutant expressed in baculovirus expression system at 1 uM by kinomescan assay relative to control
[37] = system: Receptor-type tyrosine-protein kinase FLT3 (Homo sapiens), P36888 [D835Y]; assay: Inhibition of recombinant human His-tagged FLT3 D835Y mutant expressed in baculovirus expression system at 1 uM by kinomescan assay relative to control
[38] = target: Platelet-derived growth factor receptor beta (Homo sapiens) (UniProt P09619); assay: Inhibition of recombinant human His-tagged PDGFRB expressed in baculovirus expression system at 1 uM by kinomescan assay relative to control
[39] = system: Receptor-type tyrosine-protein kinase FLT3 (Homo sapiens), P36888 [K663Q]; assay: Inhibition of recombinant human His-tagged FLT3 K663Q mutant expressed in baculovirus expression system at 1 uM by kinomescan assay relative to control

## CN1CCC(CNc2cc(Cl)nn3c(-c4cc5nc(Nc6ccccc6)[nH]c5cc4F)cnc23)CC1
[1]
  IC50: 0.27 µM
[2]
  inhibition: > 90%
[3]
  IC50: 0.68 to 1.63 µM
HEK293
  EC50: 9 µM
[4]
  IC50: 0.74 µM
[5]
  IC50: 0.08 µM
[6]
  IC50: 0.16 µM
[7]
  IC50: 0.71 µM

## CN1CCC(Nc2cc(Cl)nn3c(-c4ccc5[nH]ncc5c4)cnc23)CC1
[8]
  logD: 1.8
physchem
  solubility kinetic: 58 µM (≈ 22.1 µg/mL)

## Cn1c(Nc2ccccc2)nc2cc(-c3cnc4c(NCC5CC5)cc(Cl)nn34)ccc21
[1]
  IC50: > 10 µM
[6]
  IC50: > 10 µM

## CN1CCC(Nc2cc(Cl)nn3c(-c4ccc5[nH]c(Nc6ccccc6)nc5c4)cnc23)CC1
[8]
  logD: 2.7
physchem
  solubility kinetic: 41 µM (≈ 19.4 µg/mL)

## Cn1ncc2cc(-c3cnc4c(NCC5CC5)cc(Cl)nn34)ccc21
[1]
  IC50: > 10 µM
[6]
  IC50: > 10 µM

## CN(c1cc(Cl)nn2c(-c3ccc4[nH]ncc4c3)cnc12)[C@H]1CC[C@H](N)CC1
[1]
  IC50: > 10 µM
[6]
  IC50: > 10 µM

## Clc1cc(NC2CCOCC2)c2ncc(-c3ccc4[nH]c(Nc5ccccc5)nc4c3)n2n1
physchem
  solubility kinetic: 2.4 µM (≈ 1.1 µg/mL)

## O=C(CN1CCOCC1)N[C@H]1CC[C@H](Nc2cc(Cl)nn3c(-c4ccc5[nH]ncc5c4)cnc23)CC1
[9]
  inhibition: > 90%
[1]
  IC50: 0.087 µM
[10]
  inhibition: > 90%
[11]
  inhibition: > 90%
[12]
  inhibition: > 90%
[13]
  inhibition: > 90%
[14]
  inhibition: > 90%
[15]
  inhibition: > 90%
[16]
  inhibition: > 90%
[3]
  IC50: 0.68 to 1.63 µM
[17]
  inhibition: > 90%
[18]
  inhibition: > 90%
[19]
  inhibition: > 90%
[20]
  inhibition: > 90%
[21]
  inhibition: > 90%
HEK293
  EC50: > 49 µM
[22]
  inhibition: > 90%
[23]
  inhibition: > 90%
Homo sapiens
  inhibition: > 90%
[24]
  inhibition: > 90%
[25]
  inhibition: Active
[4]
  IC50: 1.88 µM
[26]
  inhibition: > 90%
[27]
  inhibition: > 90%
[28]
  inhibition: > 90%
[29]
  inhibition: > 90%
[30]
  inhibition: > 90%
[31]
  inhibition: > 90%
[32]
  inhibition: > 90%
[33]
  inhibition: > 90%
[5]
  IC50: 0.027 µM
[34]
  inhibition: > 90%
[35]
  inhibition: > 90%
[36]
  inhibition: > 90%
[6]
  IC50: 0.24 µM
[7]
  IC50: 1.12 µM

## Clc1cc(NCC2CC2)c2ncc(-c3ccc4[nH]ncc4c3)n2n1
[1]
  IC50: 1.6 µM
[10]
  inhibition: > 90%
[2]
  inhibition: > 90%
[37]
  inhibition: > 90%
[11]
  inhibition: > 90%
[12]
  inhibition: > 90%
[38]
  inhibition: > 90%
[16]
  inhibition: > 90%
[17]
  inhibition: > 90%
[18]
  inhibition: > 90%
[20]
  inhibition: > 90%
HEK293
  EC50: > 49 µM
[8]
  logD: 3.4
[39]
  inhibition: > 90%
physchem
  solubility kinetic: 0.8 µM (≈ 0.271 µg/mL)
[23]
  inhibition: > 90%
[30]
  inhibition: > 90%
[31]
  inhibition: > 90%
[32]
  inhibition: > 90%
[33]
  inhibition: > 90%
[5]
  IC50: 8.9 µM
[6]
  IC50: 0.303 µM
[7]
  IC50: 4.2 µM

## Clc1cc(NCC2CC2)c2ncc(-c3ccc4[nH]c(Nc5ccccc5)nc4c3)n2n1
[8]
  logD: 4.1
physchem
  solubility kinetic: 2.9 µM (≈ 1.25 µg/mL)

## Clc1cc(NC2CCOCC2)c2ncc(-c3ccc4[nH]ncc4c3)n2n1
physchem
  solubility kinetic: 2.2 µM (≈ 0.811 µg/mL)

## CN(c1ccccc1)c1nc2cc(-c3cnc4c(NCC5CC5)cc(Cl)nn34)ccc2[nH]1
[1]
  IC50: > 10 µM
[6]
  IC50: > 10 µM

## Clc1cc(NCC2CC2)c2ncc(-c3ccc4cn[nH]c4c3)n2n1
[1]
  IC50: > 10 µM
[6]
  IC50: > 10 µM
